# Data taken from patent US8034940B2, “Modulators of glucocorticoid receptor, AP-1, and/or NF-κB activity and use thereof” (Bristol-Myers Squibb Company, priority 2006, dated 2011).
# System: AP-1 induced transcriptional activity
# Test: Cellular Transrepressional Assay (AP-1 luciferase reporter, PMA-activated A549 cells)
# Type: cell-based
# Conditions: Homo sapiens, A549, 7 h, maximum inhibition, Cellular Transrepression Assay; read-out: AP-1 Max % inh (Cellular Transrepression Assay)
# In short: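 Compounds tested from 0.1 nM to 40 μM during a 7 h PMA (10 ng/ml) stimulation of A549 cells stably transfected with 7× AP-1 sites driving luciferase. Repression expressed as % reduction of PMA-induced luminescence; EC50 by curve fitting.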
row,SMILES,Emax [%]
1,CC(C)(C(=O)Nc1nncs1)[C@H]1c2ccccc2Oc2nc(-c3ccc(C(=O)NCCO)cc3)ccc21 [Example 357],29.6

# Molecular target: T1, human full-length glucocorticoid receptor (Homo sapiens, UniProt P04150)
# T1 sequence (P04150 1-777): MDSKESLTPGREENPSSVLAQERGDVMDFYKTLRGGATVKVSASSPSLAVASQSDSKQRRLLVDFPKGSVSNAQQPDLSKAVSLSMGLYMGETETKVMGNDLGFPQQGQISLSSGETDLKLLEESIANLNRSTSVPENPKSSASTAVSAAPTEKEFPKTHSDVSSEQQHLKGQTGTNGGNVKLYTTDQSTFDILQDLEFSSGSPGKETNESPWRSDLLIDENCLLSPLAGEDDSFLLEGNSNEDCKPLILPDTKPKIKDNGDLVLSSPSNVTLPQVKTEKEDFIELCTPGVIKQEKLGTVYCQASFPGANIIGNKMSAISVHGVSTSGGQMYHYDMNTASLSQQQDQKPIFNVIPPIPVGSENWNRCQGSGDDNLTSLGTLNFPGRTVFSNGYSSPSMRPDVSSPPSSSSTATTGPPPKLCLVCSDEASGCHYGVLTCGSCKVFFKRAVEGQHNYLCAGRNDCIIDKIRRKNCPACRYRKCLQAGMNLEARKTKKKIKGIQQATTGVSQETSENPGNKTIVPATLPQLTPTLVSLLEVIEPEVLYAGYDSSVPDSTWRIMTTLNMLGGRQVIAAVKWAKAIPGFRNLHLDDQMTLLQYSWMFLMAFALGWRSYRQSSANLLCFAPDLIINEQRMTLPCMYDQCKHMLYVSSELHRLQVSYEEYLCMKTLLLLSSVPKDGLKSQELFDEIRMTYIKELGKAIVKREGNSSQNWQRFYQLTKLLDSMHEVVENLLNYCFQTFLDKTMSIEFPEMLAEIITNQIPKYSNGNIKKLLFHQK
# Test: Glucocorticoid Receptor Binding Assay (I), fluorescence polarization, Fluormone GS Red
# Set-up: purified human recombinant full-length glucocorticoid receptor; purchased Invitrogen Part #2893
# Conditions: not given
# In short: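 Fluorescence polarization competition: 2 nM purified full-length recombinant receptor with 1 nM Fluormone GS Red tracer, ±test compound over 8.5E-05 to 5 μM. Incubation was 2 h at room temperature in the dark before reading FP.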
row,Ki [nM],SMILES
1,7.15,CC(C)(C(=O)Nc1nncs1)[C@H]1c2ccccc2Oc2nc(-c3ccccc3)ccc21 [Example 171]
2,64.6,Cc1cccc(-c2ccc3c(n2)Oc2ccccc2[C@@H]3C(C)(C)C(=O)Nc2nncs2)c1 [Example 179]

# Same assay, conditions: GR Binding Assay (I); read-out: GR (Ki, nM) (GR Binding Assay (I))
row,SMILES,Ki [nM]
1,CC(C)(C(=O)Nc1nncs1)[C@H]1c2ccccc2Oc2nc(-c3cccc4ccccc34)ccc21 [Example 177],> 1150
2,CC(C)(C(=O)Nc1nncs1)[C@H]1c2ccccc2Oc2nc(-c3ccc4ccccc4c3)ccc21 [Example 186],386
3,COC(=O)c1ccc(-c2ccc3c(n2)Oc2ccccc2[C@@H]3C(C)(C)C(=O)Nc2nncs2)cc1 [Example 192],12.3
4,CC(C)(C(=O)Nc1nncs1)[C@H]1c2ccccc2Oc2nc(-c3ccc(C#N)cc3)ccc21 [Example 203],4.61
5,CC(C)(C(=O)Nc1nncs1)[C@H]1c2ccccc2Oc2nc(-c3ccc(C(=O)NCCO)cc3)ccc21 [Example 357],31.4

# Other lines, results leading:
row,Ki [nM],SMILES
1,10.6,CC(C)(C(=O)Nc1nncs1)[C@H]1c2ccccc2Oc2nc(-c3ccc(Cl)cc3)ccc21 [Example 178]
2,33.1,CC(C)(C(=O)Nc1nncs1)[C@H]1c2ccccc2Oc2nc(-c3cccnc3)ccc21 [Example 187]

# Molecular target: T1, human full-length glucocorticoid receptor
# Test: Glucocorticoid Receptor Binding Assay (II), fluorescence polarization, FITC-dexamethasone
# Set-up: recombinantly expressed human full-length glucocorticoid receptor; purchased PanVera Co., Madison P2816
# Conditions: not given
# Method: Glucocorticoid Receptor Binding Assay (II)^b
# In order to measure the binding of compounds on the glucocorticoid receptor a commercially available kit was used (Glucocorticoid receptor competitor assay kit, PanVera Co., Madison, W1, P2816). Briefly, a cell lysate containing recombinantly expressed human full-length glucocorticoid receptor was mixed with a fluorescently labeled glucocorticoid (4 nM FITC-dexamethasone) plus or minus test molecule. After one hour at room temperature, the fluorescence polarization (FP) of the samples were measured. […] Test molecules were analyzed in the concentration range from 0.1 nM to 40 μM.
row,Ki [nM],SMILES
1,37.9,Cc1cccc(-c2ccc3c(n2)Oc2ccccc2[C@@H]3C(C)(C)C(=O)Nc2nncs2)c1 [Example 179]

# Same assay, conditions: GR Binding Assay (II); read-out: GR (Ki, nM) (GR Binding Assay (II))
row,SMILES,Ki [nM]
1,COc1ccc(CNc2ccc3c(n2)Oc2ccccc2[C@H]3C(C)(C)C(=O)Nc2nncs2)cc1 (racemic) [Example 136],141
2,CC(C)(C(=O)Nc1nccs1)C1c2ccccc2Sc2ccccc21 [Example 9],154
3,CC(C)(C(=O)Nc1nccs1)C1c2ccccc2-c2ccc(O)cc21 (stereo not drawn) [Example 22],1640
4,CCOC(=O)c1csc(NC(=O)C(C)(C)C2c3ccccc3CCc3ccccc32)n1 [Example 23],445
5,CC(C)(C(=O)Nc1nccs1)C1c2ccccc2CCc2ccccc21 [Example 25],41.1
6,CC(C)(C(=O)Nc1nc(Cc2ccccc2)cs1)C1c2ccccc2Oc2ccccc21 [Example 36],1040
7,CC(C)(C(=O)Nc1nccs1)C1c2ccccc2Oc2ccccc21 [Example 37],1.4
8,CCOC(=O)c1csc(NC(=O)C(C)(C)C2c3ccccc3Oc3cc(OC)ccc32)n1 (stereo not drawn) [Example 48],60.9
9,COc1ccc2c(c1)Oc1ccccc1[C@H]2C(C)(C)C(=O)Nc1nccs1 [Example 56],233
10,COc1ccc2c(c1)Oc1ccccc1[C@@H]2C(C)(C)C(=O)Nc1nccs1 [Example 60],35.7
11,COc1ccc2c(c1)Oc1ccccc1[C@@H]2C(C)(C)C(=O)Nc1ncc[nH]1 [Example 61],909
12,CC(C)(C(=O)Nc1ncns1)C1c2ccccc2Oc2ncccc21 (stereo not drawn) [Example 66],665
13,CC(C)(C(=O)Nc1nccs1)C1c2ccccc2Oc2ncccc21 (stereo not drawn) [Example 67],107
14,CCOC(=O)c1csc(NC(=O)C(C)(C)C2c3ccccc3Oc3ncccc32)n1 (stereo not drawn) [Example 68],820
15,Cc1cnc(NC(=O)C(C)(C)C2c3ccccc3Oc3ncccc32)s1 (stereo not drawn) [Example 69],515
16,Cc1csc(NC(=O)C(C)(C)C2c3ccccc3Oc3ncccc32)n1 (stereo not drawn) [Example 70],762
17,Cc1nnc(NC(=O)C(C)(C)C2c3ccccc3Oc3ncccc32)s1 (stereo not drawn) [Example 71],517
18,CC(C)(C(=O)Nc1nccs1)C1c2ccccc2Oc2c(O)cccc21 (stereo not drawn) [Example 81],243
19,COc1cccc2c1Oc1ccccc1C2C(C)(C)C(=O)Nc1nccs1 (stereo not drawn) [Example 84],104
20,Cc1nc(NC(=O)C(C)(C)[C@H]2c3ccccc3Oc3cc(O)ccc32)sc1C [Example 86],32.9

row,SMILES,Ki [nM]
1,Cc1nc(NC(=O)C(C)(C)[C@@H]2c3ccccc3Oc3cc(O)ccc32)sc1C [Example 91],2550
2,Cc1cnc(NC(=O)C(C)(C)[C@@H]2c3ccccc3Oc3cc(O)ccc32)s1 [Example 92],1200
3,Cc1csc(NC(=O)C(C)(C)[C@@H]2c3ccccc3Oc3cc(O)ccc32)n1 [Example 93],1270
4,CC(C)(C(=O)Nc1nccs1)[C@@H]1c2ccccc2Oc2cc(O)ccc21 [Example 94],404
5,CCOC(=O)c1csc(NC(=O)C(C)(C)C2c3ccccc3Oc3cc(O)ccc32)n1 (stereo not drawn) [Example 96],22.1
6,CCOC(=O)c1csc(NC(=O)C(C)(C)C2c3ccccc3Oc3cc(OCOCCOC)ccc32)n1 (stereo not drawn) [Example 97],296
7,COCCOCOc1ccc2c(c1)Oc1ccccc1C2C(C)(C)C(=O)Nc1nccs1 (stereo not drawn) [Example 98],88.7
8,COC(=O)c1csc(NC(=O)C(C)(C)C2c3ccccc3Oc3cc(O)ccc32)n1 (stereo not drawn) [Example 99],18.3
9,CC(C)(C(=O)Nc1nncs1)[C@@H]1c2ccccc2Oc2nc(N3CCC4(CC3)OCCO4)ccc21 [Example 135],537
10,C[C@H](Nc1ccc2c(n1)Oc1ccccc1[C@@H]2C(C)(C)C(=O)Nc1nncs1)c1ccccc1 [Example 142],156
11,C[C@@H](Nc1ccc2c(n1)Oc1ccccc1[C@@H]2C(C)(C)C(=O)Nc1nncs1)c1ccccc1 [Example 143],744
12,CC(C)(C(=O)Nc1nncs1)[C@H]1c2ccccc2Oc2nc(N3CCCC(c4ccccc4)C3)ccc21 (stereo partly drawn) [Example 147],4030
13,CC(C)(C(=O)Nc1nccs1)[C@H]1c2ccccc2Oc2nc(N3CCCCC3)ccc21 [Example 148],11.1
14,CC(C)(C(=O)Nc1nncs1)[C@H]1c2ccccc2Oc2nc(NC(=O)c3ccccc3)ccc21 [Example 152],10.9
15,CCCCNc1ccc2c(c1)Oc1ncccc1C2C(C)(C)C(=O)Nc1nccs1 (stereo not drawn) [Example 155],31.8
16,CC(C)Nc1ccc2c(n1)Oc1ccccc1C2C(C)(C)C(=O)Nc1nccs1 (stereo not drawn) [Example 157],186
17,CC(C)(C(=O)Nc1nncs1)[C@H]1c2ccccc2Oc2nc(-c3cccc4ccccc34)ccc21 [Example 177],460
18,CC(C)(C(=O)Nc1nncs1)[C@H]1c2ccccc2Oc2nc(-c3ccc4ccccc4c3)ccc21 [Example 186],84.6
19,COC(=O)c1ccc(-c2ccc3c(n2)Oc2ccccc2[C@@H]3C(C)(C)C(=O)Nc2nncs2)cc1 [Example 192],13.1
20,CC(C)(C(=O)Nc1nncs1)[C@H]1c2ccccc2Oc2nc(-c3ccc(C#N)cc3)ccc21 [Example 203],13.1

# The remaining lines, values ahead:
row,Ki [nM],SMILES
1,39.7,CC(C)(C(=O)Nc1nncs1)C1c2ccccc2Oc2ccccc21 [Example 39]
2,58,COc1ccc2c(c1)Oc1ccccc1[C@@H]2C(C)(C)C(=O)Nc1nncs1 [Example 62]
3,29,CC(C)(C(=O)Nc1nccs1)C1c2ccccc2Oc2nc(Cl)ccc21 (stereo not drawn) [Example 75]
4,76.4,CC(C)(C(=O)Nc1nncs1)C1c2ccccc2Oc2nc(Cl)ccc21 (stereo not drawn) [Example 76]
5,9.3,CC(C)(C(=O)Nc1nncs1)[C@H]1c2ccccc2Oc2cc(C#N)ccc21 [Example 112]
6,29.7,CNc1ccc2c(n1)Oc1ccccc1C2C(C)(C)C(=O)Nc1nccs1 (stereo not drawn) [Example 127]
7,444,CC(C)(C(=O)Nc1nncs1)[C@@H]1c2ccccc2Oc2nc(N3CCCCC3)ccc21 [Example 134]
8,221,CC(C)(C(=O)Nc1nncs1)[C@@H]1c2ccccc2Oc2nc(N3CCCC3)ccc21 [Example 137]
9,11.4,CC(C)(C(=O)Nc1nncs1)[C@H]1c2ccccc2Oc2nc(N3CCCCC3)ccc21 [Example 138]
10,1160,COC[C@H]1CCCN1c1ccc2c(n1)Oc1ccccc1[C@@H]2C(C)(C)C(=O)Nc1nncs1 [Example 145]
11,37,CC(C)(C(=O)Nc1nncs1)[C@H]1c2ccccc2Oc2nc(N3CCCCCC3)ccc21 [Example 146]
12,11,CN(C)c1ccc2c(n1)Oc1ccccc1[C@@H]2C(C)(C)C(=O)Nc1nncs1 [Example 149]
13,26.9,CC1CCCN(c2ccc3c(n2)Oc2ccccc2[C@@H]3C(C)(C)C(=O)Nc2nncs2)C1 (stereo partly drawn) [Example 150]
14,36.6,CC(C)(C(=O)Nc1nncs1)[C@H]1c2ccccc2Oc2nc(N3CCC(=O)CC3)ccc21 [Example 161]
15,256,COc1ccc(-c2ccc3c(n2)Oc2ccccc2[C@H]3C(C)(C)C(=O)Nc2nncs2)cc1 [Example 162]
16,10.2,CC(C)(C(=O)Nc1nncs1)[C@H]1c2ccccc2Oc2nc(-c3ccccc3)ccc21 [Example 171]
17,4.7,CC(C)(C(=O)Nc1nncs1)[C@H]1c2ccccc2Oc2nc(-c3ccc(Cl)cc3)ccc21 [Example 178]
18,34.4,CC(C)(C(=O)Nc1nncs1)[C@H]1c2ccccc2Oc2nc(-c3cccnc3)ccc21 [Example 187]
